Experimental data published in patent publication EP0156347A2, “Glycosides of resofurin derivatives, method for their preparation and their use in the determination of the activity of glycosidases” (BOEHRINGER MANNHEIM GMBH, priority 1984, dated 1985).

Key:
Assay type in all cases: biochemical
α-Amylase = assay: Determination of α-Amylase activity with reagent paper (Beispiel 21); details: filter paper soaked with substrate in Citratpuffer pH 6; sample with amylase plus α- and ß-Glucosidase; after a few minutes
Description: Bestimmung der α-Amylase-Aktivität
Filterpapier wird mit Resorufin-maltoheptaosid (hergestellt gemäß Beispiel 17), gelöst in Citratpuffer, pH 6, getränkt. Das so ernaltene Reagenzpapier wird nacheinander mit der d-Amylase enthaltenden Probe sowie mit a- und ß-Glucosidase versetzt.
Mit Hilfe von Proben mit bekannter d-Amylase-Konzentration läßt sicn eine Eichkurve ermitteln, anhand derer der uhbekannte d-Amylase-Genalt einer Probe bestimmt werden Kann.

ß-D-Galaktosidase = ß-D-Galaktosidase (Escherichia coli, UniProt P00722); assay: Kinetics of the enzymatic hydrolysis (Michaelis-Menten)
Chain of ß-D-Galaktosidase (P00722 2-1024): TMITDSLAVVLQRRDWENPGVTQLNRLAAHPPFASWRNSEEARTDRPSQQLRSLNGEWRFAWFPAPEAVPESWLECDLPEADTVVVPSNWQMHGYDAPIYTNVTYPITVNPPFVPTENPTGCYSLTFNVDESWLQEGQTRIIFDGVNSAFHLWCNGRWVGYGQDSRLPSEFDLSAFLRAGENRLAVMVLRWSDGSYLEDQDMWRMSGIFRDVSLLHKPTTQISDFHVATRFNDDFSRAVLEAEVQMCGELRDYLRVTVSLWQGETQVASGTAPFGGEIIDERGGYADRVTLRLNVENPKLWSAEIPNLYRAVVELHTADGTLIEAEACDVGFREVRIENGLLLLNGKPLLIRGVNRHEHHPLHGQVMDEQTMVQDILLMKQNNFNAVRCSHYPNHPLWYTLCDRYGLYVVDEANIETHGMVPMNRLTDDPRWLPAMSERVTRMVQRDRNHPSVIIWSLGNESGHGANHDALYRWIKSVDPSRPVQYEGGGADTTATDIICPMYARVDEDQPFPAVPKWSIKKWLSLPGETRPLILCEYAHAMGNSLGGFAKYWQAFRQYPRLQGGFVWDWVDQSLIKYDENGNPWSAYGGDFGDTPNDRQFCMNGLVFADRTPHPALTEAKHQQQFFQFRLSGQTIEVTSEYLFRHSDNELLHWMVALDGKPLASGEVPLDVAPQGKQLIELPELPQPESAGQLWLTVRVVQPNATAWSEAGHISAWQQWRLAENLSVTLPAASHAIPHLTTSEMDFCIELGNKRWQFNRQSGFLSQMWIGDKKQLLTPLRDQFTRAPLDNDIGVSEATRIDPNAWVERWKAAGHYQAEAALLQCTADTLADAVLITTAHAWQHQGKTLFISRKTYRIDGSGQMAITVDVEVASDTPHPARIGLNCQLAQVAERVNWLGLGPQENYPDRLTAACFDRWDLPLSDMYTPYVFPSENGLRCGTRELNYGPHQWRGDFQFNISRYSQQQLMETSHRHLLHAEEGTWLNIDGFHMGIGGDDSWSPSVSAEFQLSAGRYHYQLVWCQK
Description: Bei der Synthese der Glycoside der Resorufin-Derivate der allgemeinen Formel II entstehen nicht-fluoreszierende Verbindungen, aus denen durch enzymatische Spaltung mit Hilfe der entsprechenden Glycosidasen wieder die fluoreszierenden Resorufin-Derivate freigesetzt werden. Die erfindungsgemäßen fluorogenen Resorufin-nerivate besitzen im Vergleich zu den bisher bekannten Glycosiden anderer chromogener bzw. fluorogener Gruppen sehr vorteilhafte Eigenschaften. Als monosubstituierte Derivate weisen sie eine Kinetik der enzymatischen Hydrolyse auf, die sehr einfach durch die Michaelis-Menten-Beziehung beschrieben werden kann. Für das Resorufin-ß-D-galactopyranosid gilt beispielsweise eine Michaelis-Konstante KM = 0,38 mmol/1. Die Hemmung dieser Hydrolyse durch das natürliche Substrat Lactose ist kompetitiv, so daß für bestimmte Untersuchungen der spezifische Umsatz von Glycosiden der Resorufin-Derivate durch Zugabe von natürlichen Glycosiden, wie Lactose im Falle der ß-D-Galaktosidase, definiert und reversibel verändert werden kann.

freie ß-D-Galactosidase = target: T1, freie ß-D-Galactosidase (Escherichia coli, UniProt P00722); assay: Determination of the activity of free ß-D-Galactosidase, photometric at 578 nm (Beispiel 20); details: 0,8 mmol/l substrate, 950 ul Reagenslösung + 50 ul Enzymlösung (ca. 0,08 U/ml), 37° C
T1 construct: purchased
T1 sequence (P00722 2-1024): as above
Method: (§1) Bestimmung der Aktivität freier und konjugierter ß-D-Galactosidase
(§2) Reagenslösung: • In vorstehend beschriebener Pufferlösung werden 0,8 mmol/1 Resorufin-ß-D-galactopyranosid gelöst.
Enzymlösung: • Handelsübliche ß-D-Galactosidase aus Escherichia coli wird in Puffer gelöst. Die Aktivität dieser Lösung beträgt ca. 0,08 U/ml (bezogen auf die Hersteller-Angaben).
(§3) Die Messung erfolgt photometrisch bei 578 nm. 950 ul Reagenslösung werden jeweils in einer 1-cm-Küvette bei 37 °C mit 50 ul Enzymlösung bzw. mit 50 ul Enzym-Konjugat-Lösung vermischt. Als Maß für die Reaktion wird der Extinktionsanstieg pro Zeiteinheit in [mExt/min] ermittelt.

[1] = target: ß-D-Galactosidase-Antikörper-Konjugat (Escherichia coli, UniProt P00722); assay: Determination of the activity of conjugated ß-D-Galactosidase, photometric at 578 nm (Beispiel 20); details: 0,8 mmol/l substrate, 950 ul Reagenslösung + 50 ul Enzym-Konjugat-Lösung, 37° C
Chain of ß-D-Galactosidase-Antikörper-Konjugat (P00722 2-1024): as above
Description: as §1, §2
Enzym-Konjugat-Lösung: • Verwendet wird ein ß-D-Galactosidase-Antikörper-Präparat. Die Herstellung solcher Enzym-Antikörper-Konjugate ist bekannt. Sie ist beispielsweise in Biochem. Biophys. Acta 612, 40 - 49 (1980) beschrieben. Das Präparat wird in Puffer so verdünnt, daß sich eine mit der oben beschriebenen Enzymlösung ungefähr vergleichbare Aktivität ergibt.
as §3

ß-D-Galactosidase [2] = target: T2, ß-D-Galactosidase (Escherichia coli, UniProt P00722); assay: Detection of ß-D-Galactosidase with an indicator film / test strip (Beispiel 19); details: test strip containing the substrate, dipped in ß-D-Galactosidase solution; 2 Minuten bei Raumtemperatur
T2 sequence (P00722 2-1024): as above
Method: Nachweis von ß-D-Galactosidase mit Hilfe eines Indlkatorfilms
Zu einer nomogenen Masse werden verarbeitet: • 5 ml einer wäßrigen Lösung mit 0,5 M Kaliumphosphat und • 0,05 M Magnesiumchlorid, pH 7,3 . • 0,13 g Natriumalginat • 8 g einer 50 %igen Dispersion von Polyvinylpropionat • 10 g Kieselgel • 12 ml Wasser • 0,4 g Triton X-100 • 50 mg Resorufin-ß-D-galactopyranosid, in 5 ml Methanol gelöst.
Diese Masse wird auf eine 0,1 mm starke Polycarbonatfolie (poKalon, Fa. Lonza) mit einer Spaltbreite von 0,2 mm aufgetragen. Die Beschichtung wird bei 50° C getrocknet und danach in Stücke von 6 auf 6 mm geschnitten. Diese werden mit Hilfe von Klebeband auf eine 400 um starke Polystyrolfolie aufgeklebt.
Die so erhaltenen Teststreifen werden kurze Zeit in die zu prüfende, ß-D-Galactosidase enthaltende Lösung getaucht. […] Mit Hilfe von Testlösungen mit einem bestimmten, bekannten ß-D-Galactosidase-Gehalt kann man eine Farbskala erhalten, anhand derer der unbekannte Genalt an ß-D-Galactosidase in einer Probe ermittelt werden kann.

ß-D-Galactosidase [3] = target: T2, ß-D-Galactosidase; assay: Determination of ß-D-Galactosidase activity, photometric at 579 nm (Beispiel 18); parameters: purchased; details: Extinktionsanstieg pro Zeiteinheit, 950 ul Reagens + 50 ul Enzymlösung (ca. 0,08 U/ml), 37° C, pH 7,3, substrate 0,8 / 3,5 / 1,0 mmol/l in Reagens 1 / 2 / 3
Description: Bestimmung der Aktivität der ß-D-Galactosidase
In der vorstehend beschriebenen Pufferlösung werden 0,8 mmol/1 Resorufin-ß-D-galactopyranosid gelöst.
In der vorstehend beschriebenen Pufferlösung werden 3,5 mmol/1 Resorufin-9-carbonsäure-ß-D-galactopyranosid gelöst.
In der vorstehend beschriebenen Pufferlösung werden 1,0 mmol/1 Resorufin-9-carbonsäuremethylester-ß-D-galactopyranosid gelöst.
Handelsübliche ß-D-Galactosidase aus Escherichia coli wird in der vorstehend genannten Pufferlösung gelöst. Die AKtivität dieser Lösung beträgt ca. 0,08 U/ml (bezogen auf die Hersteller-Angaben).
Die Messung erfolgt photometrisch bei 579 nm.
950 ul Reagens werden in einer 1-cm-Küvette bei 37° C mit 50 ul Enzymlösung vermischt. Als Maß für die Reaktion wird der Extinktionsanstieg pro Zeiteinneit in [mExt/min] ermittelt. Er wird berechnet aus der gemessenen Extinktion durch Division mit der ReaKtionszeit.

O=c1ccc2nc3ccc(OC4OC(CO)C(OC5OC(CO)C(OC6OC(CO)C(OC7OC(CO)C(OC8OC(CO)C(OC9OC(CO)C(OC%10OC(CO)C(O)C(O)C%10O)C(O)C9O)C(O)C8O)C(O)C7O)C(O)C6O)C(O)C5O)C(O)C4O)cc3oc-2c1 (stereo not drawn) [Beispiel 17, Resorufin-maltoheptaosid]
Rotfärbung (α-Amylase): deutlich sicntbare Rotfärbung

OC[C@H]1O[C@@H](O[C@H]2[C@H](O)[C@@H](O)C(O)O[C@@H]2CO)[C@H](O)[C@@H](O)[C@H]1O (stereo partly drawn) [Lactose, reference compound]
Hemmung dieser Hydrolyse (ß-D-Galaktosidase; inhibition of the hydrolysis of Resorufin-ß-D-galactopyranosid by the natural substrate): kompetitiv

O=c1ccc2nc3ccc(O[C@@H]4O[C@H](CO)[C@H](O)[C@H](O)[C@H]4O)cc3oc-2c1 [Reagens 1, Resorufin-ß-D-galactopyranosid]
Km (ß-D-Galaktosidase; read-out: Michaelis-Konstante KM, enzymatic hydrolysis of the substrate): 380 µM
Extinktionsanstieg pro Zeiteinheit, Reaktion mit der freien ß-D-Galactosidase (freie ß-D-Galactosidase): 85 mExt/min
Extinktionsanstieg pro Zeiteinheit, Reaktion mit ß-D-Galactosidase-Antikörper-Konjugat [1]: 92 mExt/min
Reaktionsfarbe (ß-D-Galactosidase [2]): rote Reaktionsfarbe
Reaktion (ß-D-Galactosidase [3]): 85 mExt/min

Resorufin-1-carbonsäuremethylester [Beispiel 3]
Reaktion (ß-D-Galactosidase [3]): 76 mExt/min

Resorufin-ß-D-glucosid [Beispiel 2]
Reaktion (ß-D-Galactosidase [3]): 46 mExt/min
